Measurements reported in patent US6632422B2, “Antiperspirant and deodorant products and methods for their use” (priority 2000, dated 2003).
Counter-ions that a name gives are not always drawn. Like-named read-outs stand apart in the source and are kept apart here.

Tests used:
[1] = test system: Staphylococcus epidermidis; settings: cited from earlier work
[2] = test system: isolated human eccrine glands; experiment: In vitro sweat reduction study on isolated human eccrine glands; format: cell-based
Description: This example illustrates the ability of CCBAs to reduce sweat secretion from isolated human eccrine glands.
The method employed was analogous to that described by Sato and Sato in Am. J. Physiol., 1973, 225, 1147-1151.

[3] = test system: secretory coil cells of human eccrine glands; experiment: Inhibition of methylcholine-induced calcium influx into human eccrine secretory coil cells (Fura-2); format: cell-based
Protocol: The procedure is performed on an isolated human sweat gland. Collapsed segments of secretory coil are held between two glass pipettes in the perfusion bath of an inverted microscope and bathed at 37° C. in a solution buffered to pH 7.4. Intracellular calcium may be measured by any convenient means; in our tests the fluorescent dye FURA-2 AM was used (full details are given in Examples 1 and 2). The calcium influx induced by the administration of methylcholine at 1 μmol.dm^−3 is compared before and after the introduction of the test material into the buffer solution. Test materials are classed as CCBAs if they are able to reduce the methylcholine-induced calcium influx into the cells, preferably by at least 20%, more preferably by at least 50%. The concentration of test material used should be between 1 and 100 μmol.dm^−3 for pure compounds, 25 μmol.dm^−3 being a typical concentration of use. When the test material used is not a pure compound, for example when it is a plant extract, allowance must be made for the non-active components in the extract when choosing the test dosage.
(§1) Collapsed segments of secretory coil were held between two glass pipettes in the perfusion bath of an inverted Olympus IMT-2 microscope and bathed in a solution at 37° C. containing (in mmol.dm^−3): sodium chloride, 130; HEPES (buffer; 4-[2-hydroxyethyl]-1-piperazineethanesulphonic acid), 20; potassium chloride, 5; calcium chloride, 1; magnesium chloride, 1; and glucose, 10. The pH of the solution was adjusted to 7.4 using 1 mol.dm^−3 sodium hydroxide solution.
The calcium influx was induced by the administration of methylcholine (a cholinergic agonist) at 1 μmol.dm^−3. This was first done for control solutions containing no CCBA and then for test solutions containing tetrandrine (various dosages).
(§2) Intracellular calcium concentration was measured using the fluorescent probe Fura-2, a dye that has high affinity for calcium. When illuminated with ultraviolet light at 350 and 380 nm, Fura-2 emits corresponding fluorescent signals. Importantly, when calcium binds to the dye, the magnitude of the emitted fluoresence signal alters. It is these changes that are used to calculate the intracellular calcium concentration (vide infra).
Segments of secretory coil were incubated for 40 minutes, at 37° C., with 5 μm.dm^−3 Fura-2 AM. This form of Fura-2 is lipid soluble and readily enters the cell where the AM group is cleaved off by esterases, leaving the fluorescent lipid-insoluble dye trapped within the cells. Excitation light at 350 and 380 nm was supplied from a computer controlled Photon Technology International (PTI) spectrofluorimeter. This light was passed through a 390 nm dichroic mirror, prior to passage through the microscope objective (×40) and onto the tissue sample. The fluorescence resulting from the tissue was passed through a 505 nm bandpass filter, before being detected by a photomultiplier tube. The output from the photomultiplier tube was digitised and analysed using Photon Technology International software. Background fluorescence (measured prior to introduction of the Fura-2 AM) was subtracted from the total signal for each wavelength and a value representing the intracellular calcium concentration was obtained by dividing the fluorescence value resulting from the 350 nm excitation light by that resulting from the 380 nm excitation light.

[4] = test system: secretory coil cells of human apocrine glands; experiment: Inhibition of methylcholine-induced calcium influx into human apocrine secretory coil cells (Fura-2); format: cell-based
Protocol: as §1
as §2, with “It is these changes that are used to calculate the intracellular calcium concentration (vide infra).” left out
Segments of secretory coil were incubated for 40 minutes, at 37° C., with 5 μm.dm^−3 Fura-2 AM. This form of Fura-2 is lipid soluble and readily enters the cell where the AM group is cleaved off by esterases, leaving the fluorescent lipid-insoluble dye trapped within the cells. […] The fluorescence resulting from the tissue was passed through a 505 nm bandpass filter, before being detected by a photomultiplier tube. The output from the photomultiplier tube was digitised and analysed using Photon Technology International software. […]

[5] = test system: isolated cannulated monkey palm eccrine sweat glands; settings: in vitro; cited from earlier work

Compound: CCO [ethanol]
- MIC ([1]; stated by contrast, no source given): greater than 1 mg.ml^−1

Compound: COc1ccc(CCN(C)CCCC(C#N)(c2ccc(OC)c(OC)c2)C(C)C)cc1OC (stereo not shown) [Verapamil hydrochloride]
- % reduction in sweat secretion ([2]; dosage 1000 μmol.dm^−3): 93%

Compound: Oc1cc(Cl)ccc1Oc1ccc(Cl)cc1Cl [triclosan, 2′,4,4′-trichloro, 2-hydroxy-diphenyl ether]
- MIC ([1]; literature values): 0.01 to 10 µg/mL

Compound: COc1ccc2cc1Oc1ccc(cc1)C[C@H]1c3cc(c(OC)cc3CCN1C)Oc1c(OC)c(OC)cc3c1[C@H](C2)N(C)CC3 [Tetrandrine, tetrandrine]
- % reduction in sweat secretion ([2]; dosage 50 μmol.dm^−3): 93%
- Ca influx inhibition ([3]; dosage 1 μmol.dm^−3, methylcholine 1 μmol.dm^−3): 24%
- Ca influx inhibition ([3]; dosage 10 μmol.dm^−3, methylcholine 1 μmol.dm^−3): 44%
- Ca influx inhibition ([3]; dosage 25 μmol.dm^−3, methylcholine 1 μmol.dm^−3): 75%
- Ca influx inhibition ([3]; dosage 50 μmol.dm^−3, methylcholine 1 μmol.dm^−3): 96%
- Ca influx inhibition ([3]; dosage 100 μmol.dm^−3, methylcholine 1 μmol.dm^−3): 100%
- Ca influx inhibition ([4]; dosage 10 μmol.dm^−3, methylcholine 50 μmol.dm^−3): 60%
- Ca influx inhibition ([4]; dosage 50 μmol.dm^−3, methylcholine 50 μmol.dm^−3): 93%

Compound: CC(C)=CCCC(C)=CCCC(C)=CCO [farnesol, 3,7,11-trimethyldodeca-2,6,10-trienol]
- MIC ([1]; literature values): ca. 25 μg.ml^−1

Compound: methoxy-verapamil
- effect on sweat production [5]: reduce sweat production
